What all share (type): in vivo
In one test the test system is Zymoseptoria tritici. Put plainly: Leaf blotch of wheat (SEPTTR) disease control on wheat seedlings. As to conditions: for pest or weed control at 121.5 g/ha: Low volume application; for pest or weed control at 100 ppm: High volume application.
The next test deals with Puccinia triticina. The test is described as follows: Wheat brown rust (PUCCRT) disease control on wheat seedlings. As to conditions: for pest or weed control at 121.5 g/ha: Low volume application; for pest or weed control at 100 ppm: High volume application. An outline of the steps: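 Yuma wheat seedlings (first leaf emerged) sprayed to run-off with compound in acetone plus nine volumes water containing 110 ppm Triton X-100, or track-sprayed as EC formulations with 0.1% Trycol 5941. Rust spores inoculated before or after treatment; overnight dark dew, 22 °C, 100% RH, then greenhouse at 24 °C.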

The next test relates to Phakopsora pachyrhizi. The test is described as follows: Asian soybean rust (PHAKPA) disease control on soybean seedlings. To be noted: High volume application at 25 ppm; for pest or weed control at 25 ppm: Phakopsora pachyrhizi. The protocol:
Example C: Evaluation of Fungicidal Activity: Asian Soybean Rust (Phakopsora pachyrhizi; Bayer Code […]) Technical grades of materials were dissolved in acetone, which were then mixed with nine volumes of water containing 0.011% Tween 20. The fungicide solutions were applied onto soybean seedlings using an automated booth sprayer to run-off. All sprayed plants were allowed to air dry prior to further handling. Soybean plants (variety Williams 82) were grown in soil-less Metro mix, with one plant per pot. Two week old seedlings were used for testing. Plants were inoculated either 3 days prior to or 1 day after fungicide treatments. Plants were incubated for 24 h in a dark dew room at 22° C. and 100% relative humidity then transferred to a growth room at 23° C. for disease to develop. Disease severity was assessed on the sprayed leaves.

Where [1] appears, read: 24 h, 1 Day Protectant, read-out: SEPTTR disease control rating, 1DP.
Setting [2] is: 72 h, 3 Day Curative, read-out: SEPTTR disease control rating, 3DC.
Where [3] appears, read: 24 h, 1 Day Protectant, read-out: PUCCRT disease control rating, 1DP.
The mark [4] stands for this setting: 72 h, 3 Day Curative, read-out: PUCCRT disease control rating, 3DC.
[5] abbreviates: 24 h, 1 day protectant, read-out: PHAKPA 1DP (1 Day Protectant) disease control.
The mark [6] stands for this setting: 72 h, 3 day curative, read-out: PHAKPA 3DC (3 Day Curative) disease control.

Read-outs that look alike come from different tables or passages of the source.

With `COc1cc[n+]([O-])c(C(=O)N[C@@H](C)C(=O)O[C@@H](C)[C@@H](C)c2ccc(F)cc2C(F)(F)F)c1O` [Example 274], the pest or weed control at 121.5 g/ha in the test with Zymoseptoria tritici (setting [1]), in the test with Zymoseptoria tritici (setting [2]), with Puccinia triticina (setting [3]) and in the test on Puccinia triticina (setting [4]) was < 80% in each case. The pest or weed control at 25 ppm with Phakopsora pachyrhizi (setting [5]) and in the test on Phakopsora pachyrhizi (setting [6]) was < 80% throughout.
As to `COc1ccnc(C(=O)N[C@@H](C)C(=O)O[C@H](C)[C@H](C)c2ccc(C)cc2C)c1OC(=O)C(C)C` [Example 180], the pest or weed control at 121.5 g/ha with Zymoseptoria tritici (setting [1]), with Zymoseptoria tritici (setting [2]), with Puccinia triticina (setting [3]) and in the test on Puccinia triticina (setting [4]) was < 80% in each case. Moreover, the pest or weed control at 25 ppm with Phakopsora pachyrhizi (setting [5]) is > 80%; in the test with Phakopsora pachyrhizi (setting [6]) it was < 80%.
With `COc1ccnc(C(=O)N[C@@H](C)C(=O)O[C@@H](C)[C@@H](C)c2ccc(F)cc2C(F)(F)F)c1OC(C)=O` [Example 246], the pest or weed control at 121.5 g/ha in the test on Zymoseptoria tritici (setting [1]), in the test with Zymoseptoria tritici (setting [2]), in the test on Puccinia triticina (setting [3]) and with Puccinia triticina (setting [4]) was > 80% each time. The pest or weed control at 25 ppm in the test with Phakopsora pachyrhizi (setting [5]) and with Phakopsora pachyrhizi (setting [6]) was > 80% in each case.
Take `COc1ccnc(C(=O)N[C@@H](C)C(=O)O[C@@H](C)[C@@H](C)c2ccc(F)cc2C(F)(F)F)c1O` [Example 159]: the pest or weed control at 100 ppm in the test with Zymoseptoria tritici (setting [1]), in the test on Zymoseptoria tritici (setting [2]), in the test on Puccinia triticina (setting [3]) and in the test with Puccinia triticina (setting [4]) was > 80% throughout. Further, the pest or weed control at 25 ppm in the test on Phakopsora pachyrhizi (setting [6]) is > 80%.
In the case of `COc1ccnc(C(=S)N[C@@H](C)C(=O)O[C@@H](C)[C@@H](C)C2CCCC2)c1OC(C)=O` [Example 272], the pest or weed control at 121.5 g/ha with Zymoseptoria tritici (setting [1]), in the test on Zymoseptoria tritici (setting [2]), in the test on Puccinia triticina (setting [3]) and with Puccinia triticina (setting [4]) was < 80% in each case. For the same molecule, the pest or weed control at 25 ppm with Phakopsora pachyrhizi (setting [5]) is > 80%; with Phakopsora pachyrhizi (setting [6]), < 80%.
Regarding `COc1ccnc(C(=O)N[C@H](C)C(=O)O[C@H](C)[C@H](C)c2ccc(F)cc2C)c1OC(C)=O` [Example 195], the values for the pest or weed control at 25 ppm with Phakopsora pachyrhizi (setting [5]) and in the test on Phakopsora pachyrhizi (setting [6]) were < 80% and < 0%, respectively.
`COc1ccnc(C(=O)N[C@H](C(=O)O[C@@H](C)[C@@H](C)c2ccc(F)cc2C)C(C)C)c1OC(=O)C(C)C` [Example 207]: the “PHAKPA 1DP (1 Day Protectant) disease control” value (from here on “PHAKPA 1DP”) with Phakopsora pachyrhizi (1 day protectant) is on record as “B (≤80)”. Besides, the “PHAKPA 3DC (3 Day Curative) disease control” value (“PHAKPA 3DC” for short) in the test on Phakopsora pachyrhizi (3 day curative) is recorded as “D (≤0)”.
The corresponding values for `COc1ccnc(C(=O)N[C@H](C(=O)O[C@@H](C)[C@@H](C)c2ccc(F)cc2C)C(C)C)c1OC(=O)C(C)C` [Example 206] are “B (≤80)” and “D (≤0)”.
Consider `COc1ccnc(C(=O)N[C@H](C(=O)O[C@H](C)[C@@H](C)c2ccccc2C)C(C)C)c1OC(=O)C(C)C` [Example 215], for which the pest or weed control at 25 ppm in the test with Phakopsora pachyrhizi (setting [5]) and in the test on Phakopsora pachyrhizi (setting [6]) was < 80% each time.
As to `COc1ccnc(C(=O)N[C@H](C)C(=O)O[C@@H](C)[C@H](C)c2ccc(F)cc2C)c1OC(=O)C(C)C` [Example 218], the pest or weed control at 25 ppm with Phakopsora pachyrhizi (setting [5]) is < 0%; in the test with Phakopsora pachyrhizi (setting [6]) it was < 80%.
The corresponding values for `COc1ccnc(C(=O)N[C@H](C(=O)O[C@H](C)[C@H](C)c2ccc(F)cc2C)C(C)C)c1OC(=O)C(C)C` [Example 214] are < 80% and < 80%.
The corresponding values for `COc1ccc([C@@H](C)[C@@H](C)OC(=O)[C@H](C)NC(=O)c2nccc(OC)c2OC(=O)C(C)C)c(C)c1` [Example 227] are < 80% and < 0%.
As for `COc1ccnc(C(=O)N[C@@H](C)C(=O)O[C@H](C)[C@H](C)c2ccc(F)cc2)c1OC(C)=O` [Example 182], the pest or weed control at 25 ppm in the test on Phakopsora pachyrhizi (setting [5]) and in the test on Phakopsora pachyrhizi (setting [6]) was < 80% in each case.
In the case of `COc1ccnc(C(=O)N[C@@H](C)C(=O)O[C@@H](C)[C@H](C)c2ccccc2C)c1OC(=O)C(C)C` [Example 202], in the test on Phakopsora pachyrhizi (1 day protectant), the “PHAKPA 1DP” value is recorded as “B (≤80)”. In the test with Phakopsora pachyrhizi (setting [6]), the pest or weed control at 25 ppm was < 0%.
In the case of `COc1ccnc(C(=O)N[C@@H](C)C(=O)O[C@@H](C)[C@@H](C)c2ccc(F)cc2)c1OC(=O)C(C)C` [Example 203], the “PHAKPA 1DP” value in the test with Phakopsora pachyrhizi (1 day protectant) is reported as “A (>80)”. The “PHAKPA 3DC” value in the test on Phakopsora pachyrhizi (3 day curative) is listed as “B (≤80)”.
Consider `COc1ccnc(C(=O)N[C@@H](C)C(=O)O[C@@H](C)[C@H](C)c2ccc(F)cc2C)c1OC(=O)C(C)C` [Example 201], for which the pest or weed control at 25 ppm with Phakopsora pachyrhizi (setting [5]) and in the test on Phakopsora pachyrhizi (setting [6]) was < 80% in each case.
As to `COc1ccnc(C(=O)NCC(=O)O[C@@H](C)[C@H](C)c2ccc(F)cc2C)c1OC(=O)C(C)C` [Example 197], the pest or weed control at 25 ppm in the test on Phakopsora pachyrhizi (setting [5]) and with Phakopsora pachyrhizi (setting [6]) was < 0% in each case.
Turning to `COc1ccnc(C(=O)N[C@@H](C)C(=O)O[C@@H](C)[C@H](C)c2ccccc2C)c1OC(=O)C(C)C` [Example 228], the “PHAKPA 1DP” value in the test with Phakopsora pachyrhizi (1 day protectant) was “D (≤0)”. Also, the “PHAKPA 3DC” value in the test with Phakopsora pachyrhizi (3 day curative) is recorded as “D (≤0)”.
In the case of `COc1ccnc(C(=O)N[C@H](C(=O)O[C@H](C)[C@@H](C)c2ccccc2C)C(C)C)c1OC(C)=O` [Example 191], the pest or weed control at 25 ppm in the test on Phakopsora pachyrhizi (setting [5]) and in the test with Phakopsora pachyrhizi (setting [6]) was < 80% in each case.
For `COc1ccnc(C(=O)N[C@H](C(=O)O[C@H](C)[C@H](C)c2ccc(F)cc2)C(C)C)c1OC(C)=O` [Example 192], the pest or weed control at 25 ppm was < 80% in the test with Phakopsora pachyrhizi (setting [5]) and < 0% in the test with Phakopsora pachyrhizi (setting [6]).
With `CCCCC(=O)Oc1c(OC)ccnc1C(=O)N[C@@H](C)C(=O)O[C@@H](C)[C@@H](C)c1ccccc1C` [Example 280], the pest or weed control at 25 ppm in the test with Phakopsora pachyrhizi (setting [5]) and with Phakopsora pachyrhizi (setting [6]) was > 80% in each case.
As to `COc1ccnc(C(=O)N[C@@H](C)C(=O)O[C@@H](C)[C@@H](C)c2ccccc2C)c1OC(=O)C1CC1` [Example 281], the pest or weed control at 25 ppm with Phakopsora pachyrhizi (setting [5]) and in the test with Phakopsora pachyrhizi (setting [6]) was > 80% each time.
For the molecule `COc1ccc([C@H](C)[C@H](C)OC(=O)[C@@H](NC(=O)c2nccc(OC)c2OC(C)=O)C(C)C)c(C)c1` [Example 188], the pest or weed control at 25 ppm in the test with Phakopsora pachyrhizi (setting [5]) is > 80%; with Phakopsora pachyrhizi (setting [6]) it was < 80%.
With `COc1ccc([C@H](C)[C@H](C)OC(=O)CNC(=O)c2nccc(OC)c2OC(=O)C(C)C)c(C)c1` [Example 224], the “PHAKPA 1DP” value in the test on Phakopsora pachyrhizi (1 day protectant) is “B (≤80)”. For the same molecule, in the test on Phakopsora pachyrhizi (3 day curative), the “PHAKPA 3DC” value is “D (≤0)”.
As to `COc1ccc([C@@H](C)[C@@H](C)OC(=O)[C@H](C)NC(=O)c2nccc(OC)c2OC(C)=O)c(C)c1` [Example 183], the pest or weed control at 25 ppm was > 80% in the test on Phakopsora pachyrhizi (setting [5]) and < 80% in the test with Phakopsora pachyrhizi (setting [6]).
Taken in the same sequence, the figures for `COc1ccnc(C(=O)N[C@H](C)C(=O)O[C@H](C)[C@H](C)c2ccc(F)cc2C)c1OC(=O)C(C)C` [Example 219] were < 0% and < 0%.
Taken in the same sequence, the figures for `COc1ccnc(C(=O)N[C@H](C(=O)O[C@H](C)[C@H](C)c2ccc(F)cc2)C(C)C)c1OC(=O)C(C)C` [Example 216] were < 80% and < 0%.
Taken in the same sequence, the figures for `COc1ccnc(C(=O)N[C@H](C(=O)O[C@H](C)[C@@H](C)c2ccc(F)cc2C)C(C)C)c1OC(C)=O` [Example 190] were < 0% and < 0%.
On to `COc1ccnc(C(=O)N[C@H](C(=O)O[C@@H](C)[C@@H](C)c2ccc(F)cc2C)C(C)C)c1OC(=O)C(C)C` [Example 205], for which, in the test on Phakopsora pachyrhizi (3 day curative), the “PHAKPA 3DC” value is given as “B (≤80)”. For the same molecule, in the test on Phakopsora pachyrhizi (setting [5]), the pest or weed control at 25 ppm was > 80%.
Turning to `COc1ccc([C@@H](C)[C@@H](C)OC(=O)[C@H](C)NC(=O)c2nccc(OC)c2OC(C)=O)c(C)c1` [Example 220], the “PHAKPA 1DP” value with Phakopsora pachyrhizi (1 day protectant) is reported as “B (≤80)”. Besides, the “PHAKPA 3DC” value in the test on Phakopsora pachyrhizi (3 day curative) is “B (≤80)”.
`COc1ccc([C@H](C)[C@H](C)OC(=O)[C@H](C)NC(=O)c2nccc(OC)c2OC(=O)C(C)C)c(C)c1` [Example 204]: the “PHAKPA 1DP” value with Phakopsora pachyrhizi (1 day protectant) is on record as “A (>80)”. The “PHAKPA 3DC” value with Phakopsora pachyrhizi (3 day curative) is listed as “A (>80)”.

(Values after patent US20200399222A1, “PICOLINAMIDES AS FUNGICIDES” (Dow AgroSciences LLC, priority 2018, published 2020).)
